Test results reported in patent publication US20220175811A1, “STABLE FORMULATIONS OF CYCLIC DINUCLEOTIDE STING AGONIST COMPOUNDS AND METHODS OF USE THEREOF” (Merck Sharp & Dohme Corp., priority 2019, published 2022).

Assay: Forced stress screen (AIBN, peroxide, 0.1N NaOH)
Assay type: physicochemical
Experimental: 0.05 mg/mL stock solutions of Compound A were prepared by adding […] of Compound A to a 50 mL volumetric flask and diluted to volume with either 50/50 water/methanol (stock solution A), or 50/50 water/acetonitrile (stock solution B).
An azobisisobutyronitrile (AIBN) stress solution was prepared by dissolving 7.77 mg of AIBN in 10 mL of stock solution A in an amber volumetric flask and sonicating to dissolve. The AIBN control solution was prepared by dissolving 8.48 mg of AIBN in 10 mL of 50/50 methanol/water in an amber volumetric flask. Both solutions were placed in an oven at 40° C. for 24 hours.
A peroxide stress solution was prepared by adding 1.0 mL of 3% hydrogen peroxide to 9.0 mL of stock solution A in a volumetric flask. An aliquot of the solution was placed into an amber vial kept at room temperature, and another aliquot was stored at 5° C. for 24 hours. The peroxide control solution was prepared by adding 1.0 mL of 3% hydrogen peroxide to 9.0 mL 50/50 methanol/water in an amber volumetric flask. This solution was kept at room temperature for 24 hours.
A 0.1N NaOH stress solution was prepared by adding 1.0 mL of 1N sodium hydroxide to 9.0 mL of stock solution B in an amber volumetric flask. One sample was kept at room temperature, and the identical sample was placed in an oven at 60° C. for 24 hours. A 0.1N NaOH control solution was prepared by adding 1.0 mL of 1N sodium hydroxide to 9.0 mL of 50/50 acetonitrile/water in an amber volumetric flask.
No major degradation was observed under AIBN or 0.1N NaOH base stress. […] The percent of Compound A was calculated based on the area count of active peak in the control samples compared to stress samples.

Sensitive for Hydrolysis or Oxidation (0.1 N NaOH base stress, in 0.1 N NaOH after 24h/RT): No sensitivity; <5% drug loss | Sensitive for Hydrolysis or Oxidation (AIBN stress): No sensitivity; <5% drug loss | Sensitive for Hydrolysis or Oxidation (Peroxide stress at 5° C.): High sensitivity; >10% drug loss | Sensitive for Hydrolysis or Oxidation (Peroxide stress at RT): High sensitivity; >10% drug loss | Sensitivity to two-electron oxidative processes (forced stress): highly sensitive
SMILES: Nc1nc2c(ncn2[C@@H]2O[C@@H]3CO[P@@](=O)(S)O[C@H]4[C@H](F)[C@H](n5cnc6c(N)ncnc65)O[C@@H]4CO[P@@](=O)(S)O[C@@H]2[C@@H]3F)c(=O)[nH]1 (single isomer, unassigned) [Compound A]
